# Assay results published in patent publication US20050153288A1, “Methods for identifying gibberellin responsive genes using cultured vegetable cells” (priority 2001, published 2005).
# Entries after “also recorded” stand apart in the source; their conditions may differ. Where two headings read alike, the source gives them in different places.
# What was measured:
# [1] = test system: CIGR1 gene and CIGR2 gene; assay: Induction of CIGR1 and CIGR2 gene expression by gibberellin in cultured rice cells (Northern blot hybridization); format: cell-based, rice (Oryza sativa cv. Nipponbare); details: for induction of CIGR1 and CIGR2 gene expression by gibberellin species: cultured rice cells treated for ten minutes
# Protocol: (§1) (1) Rice cultured cells: The cultured cells of rice were induced from germinating rice seeds (Oryza sativa cv. Nipponbare) on an N6 agar plate containing 1 ppm 2,4-D (2,4-dichlorophenoxyacetic acid). The cells were successively cultured in liquid N6 medium as follows: Once a week, cells of about 1 ml in volume were transferred to 150 ml of N6 medium. Every two weeks, cell clusters were passed through a 20-mesh metal screen to reduce their size. Cells which had been transferred to 30 ml of medium with no screen treatment, and then shake-cultured for four to six days, were used for extraction of RNA for Northern blotting.
# (§2) (2) RNA extraction: The extraction of total RNA from cultured cells and green leaves of rice was carried out according to the phenol-SDS method. A Polytron homogenizer was used to homogenize living tissue in the presence of about tenfold or more volume to tissue-volume of phenol (about 90% saturated with water), and a volume of buffer solution (50 mM Tris-HCl pH 9.0, 1% SDS, 50 mM NaCl) equal to this phenol volume. The aqueous phase obtained by centrifugation was then repeatedly extracted with phenol. Total nucleic acid was precipitated by adding 0.6 volume of isopropanol to the extract and stirring the mixture. After dissolving the precipitate in water, a 0.25 volume of 10M LiCl was added, and the mixture was cooled on ice. High molecular weight RNA was collected by centrifugation, washed with 70% ethanol, and then dissolved in a small volume of water to be used as an RNA sample.
# […] Gibberellin (GA3 dissolved in ethanol) was added to make up each final concentration, cells were cultured with shaking for predetermined periods, and then used for RNA extraction. Nipponbare plants grown for three weeks after seeding were sprayed with gibberellin. The third and fourth leaves were collected at certain intervals, and total RNA was extracted. Elicitor treatment was carried out by directly adding aqueous elicitor solution to cultured cells of rice.
# (4) Hybridization: RNA for Northern hybridization was denatured using the glyoxal method. 2.7 μl of glyoxal (final concentration, 1M), 1.6 μl of sodium phosphate (pH 7.0, final concentration, 10 mM), and 8 μl of dimethylsulfoxide (final concentration, 50%) were added to 10 μg of total RNA (3.7 μl). The mixture was kept at 50° C. for one hour and then subjected to electrophoresis in 1.4% agarose (10 mM sodium phosphate, pH 7.0). After electrophoresis, RNA was blotted onto a nylon membrane (Biodyne A). The RNA was fixed onto the membrane by treatment for two hours at 80° C. Hybridization was carried out in a mixture of 50% formamide, 0.1% SDS, 0.1 mg/ml salmon sperm DNA, 5×SSPE (0.9 M NaCl, 50 mM sodium phosphate, 5 mM EDTA, pH 7.4), and 5× Denhardt's solution (0.1% bovine serum albumin, 0.1% Ficoll, 0.1% polyvinylpyrrolidone) at 42° C. for one day. The membrane was then washed with 0.1×SSC (15 mM NaCl, 1.5 mM sodium citrate) three times for five minutes each time at room temperature, and twice for 30 minutes each time at 65° C., and then exposed on x-ray film.
# [2] = test system: CIGR1 gene and CIGR2 gene; assay: Expression of CIGR1 and CIGR2 genes in green leaves of rice after GA3 spraying; format: in vivo, rice (Nipponbare); details: third and fourth leaves, three weeks after seeding, sprayed with GA3 (50 μM)
# Protocol: as §2
# (§3) (3) A method for gibberellin treatment of cultured cells and green leaves: The cultured cells were pre-washed several times with 2,4-D-free N6 medium, and then suspended in the same medium and shaken for two hours at 25° C. […]
# In the presence of auxins, cultured plant cells are thought to be in an undifferentiated state. […] Thus, the responses of these two genes to gibberellin were analyzed in the green leaves of rice. […]
# [3] = test system: CHRC, a carotenoid-associated protein in the chromoplasts of cucumber petals; details: cited from earlier work
# [4] = test system: elicitor-responsive genes; details: K-252a pretreatment; cited from earlier work
# [5] = test system: CIGR1 gene and CIGR2 gene; assay: Effect of protein kinase/phosphatase inhibitors on chitin heptamer induction of CIGR1 and CIGR2 genes in cultured rice cells; format: cell-based; details: inhibitor added ten minutes before treatment; okadaic acid 1 μM, lavendustin A 30 μM, K-252a 20 μM
# Protocol: (§4) FIG. 11 depicts photographs representing the effects of protein kinase inhibitors on elicitor response and gibberellin response. The following compounds were added ten minutes before treatment with chitin heptamer (GN7) or gibberellin (GA3). (A): the positive elicitor response control; (B) : okadaic acid (1 μM); (C) : lavendustin A (30 μM); (D) : K-252a (20 μM).
# as §1, §2, §3
# α-amylase = details: aleurone layer of wheat, cited from earlier work
# [6] = test system: CIGR1 gene and CIGR2 gene; assay: Effect of protein kinase/phosphatase inhibitors on GA3 induction of CIGR1 and CIGR2 genes in cultured rice cells; format: cell-based; details: inhibitor added ten minutes before treatment; okadaic acid 1 μM, lavendustin A 30 μM, K-252a 20 μM
# Protocol: as §4, §1, §2, §3
# [7] = test system: CIGR1 gene and CIGR2 gene; assay: Elicitor (chitin/chitosan oligomer) induction of CIGR1 and CIGR2 gene expression in cultured rice cells (Northern blot hybridization); format: cell-based, rice (Oryza sativa cv. Nipponbare)
# Protocol: as §1, §2
# (3) A method for gibberellin treatment of cultured cells and green leaves: The cultured cells were pre-washed several times with 2,4-D-free N6 medium, and then suspended in the same medium and shaken for two hours at 25° C. Gibberellin (GA3 dissolved in ethanol) was added to make up each final concentration, cells were cultured with shaking for predetermined periods, and then used for RNA extraction. Nipponbare plants grown for three weeks after seeding were sprayed with gibberellin. The third and fourth leaves were collected at certain intervals, and total RNA was extracted. […]
# [8] = ten minutes of GA3 treatment, 2,4-D-free medium
smiles,measurement,setting,value
C=C1C[C@]23C[C@@]1(O)CC[C@H]2[C@@]12CC[C@H](O)[C@@](C)(C(=O)O1)[C@H]2[C@@H]3C(=O)O [GA1],induction of CIGR1 and CIGR2 gene expression by gibberellin species,[1],induced the expression of both genes
C=C1C[C@]23C[C@@]1(O)CC[C@H]2[C@@]12C=C[C@H](O)[C@@](C)(C(=O)O1)[C@H]2[C@@H]3C(=O)O [GA3],expression of CIGR1 and CIGR2 genes over time after GA3 treatment,"[1]; cells pre-washed with 2,4-D-free medium, two hours of pre-culture in the same medium",Transient expression with a maximum at ten minutes after treatment
same,induction of CIGR1 and CIGR2 gene expression by gibberellin species,[1],induced the expression of both genes
same,"change in gene expression (CIGR1, CIGR2) after GA3 treatment","[1]; suspension-cultured cells in medium comprising 2,4-D, observed for three hours after treatment",no significant change in expression amount was found; also recorded: No change in gene expression was detected
same,GA3 concentration at which induction of expression of both genes began to appear,[1]; [8],10^−6 M
same,GA3 concentration at which induction reached near saturation,[1]; [8],~10^−4 M
same,time of maximum transient expression of both genes after spraying,[2],30 min
same,GA3 concentration required for induction of CHRC,[3],at least 10^−7 M
same,GA3 concentration up to which CHRC expression level increased approximately linearly,[3],up to 10^−4 M
C=C1C[C@]23C[C@H]1CC[C@H]2[C@@]12CC[C@H](O)[C@@](C)(C(=O)O1)[C@H]2[C@@H]3C(=O)O [GA4],induction of CIGR1 and CIGR2 gene expression by gibberellin species,[1],induced the expression of both genes
C=C1C[C@]23C[C@H]1CC[C@H]2[C@]1(C(=O)O)CC[C@H](O)[C@@](C)(C(=O)O)[C@H]1[C@@H]3C(=O)O [GA13],induction of CIGR1 and CIGR2 gene expression by gibberellin species,[1],only active type gibberellins induced the expression of both genes
C=C1C[C@]23C[C@@]1(O)CC[C@H]2[C@]1(C(=O)O)CCC[C@@](C)(C(=O)O)[C@H]1[C@@H]3C(=O)O [GA17],induction of CIGR1 and CIGR2 gene expression by gibberellin species,[1],only active type gibberellins induced the expression of both genes
COC(=O)[C@@]1(O)C[C@H]2O[C@]1(C)n1c3ccccc3c3c4c(c5c6ccccc6n2c5c31)C(=O)NC4 [K-252-A],inhibition of induction of expression of elicitor-responsive genes,[4],strongly inhibited
same,inhibition of induction of both genes by chitin heptamer,[5],almost completely inhibited
same,inhibition of gibberellin's induction of α-amylase,α-amylase; listed as K252a,hardly inhibited induction
same,inhibition of induction of both genes by GA3,[6],almost completely inhibited
O=C(O)c1cc(N(Cc2ccccc2O)Cc2cc(O)ccc2O)ccc1O [Lavendustin A],inhibition of induction of both genes by chitin heptamer,[5],hardly inhibited
same,inhibition of induction of both genes by GA3,[6],inhibited induction by GA3 almost completely
"CC(=O)N[C@H]1[C@H](O[C@@H]([C@H](O)[C@H](C=O)NC(C)=O)[C@H](O)CO)O[C@H](CO)[C@@H](O[C@@H]2O[C@H](CO)[C@@H](O[C@@H]3O[C@H](CO)[C@@H](O[C@@H]4O[C@H](CO)[C@@H](O[C@@H]5O[C@H](CO)[C@@H](O[C@@H]6O[C@H](CO)[C@@H](O)[C@H](O)[C@H]6NC(C)=O)[C@H](O)[C@H]5NC(C)=O)[C@H](O)[C@H]4NC(C)=O)[C@H](O)[C@H]3NC(C)=O)[C@H](O)[C@H]2NC(C)=O)[C@@H]1O [chitin heptamers, N-acetylchitoheptaose]",response of both genes to chitin oligomers and chitosan oligomers,"[7]; chitin monomers to heptamers, tetramer and heptamer chitosan oligomers",strongest responses
same,time up to which expression continued to increase,[7]; time-course after chitin heptamer treatment,up to 90 minutes
same,increase in mRNA amount of both genes after elicitor treatment,[7]; time-course in cultured rice cells,Significant increases in mRNA amount were observed in both genes five minutes after treatment
C=C1[C@@H](O)[C@@H]2O[C@]3(CC[C@H](/C=C/[C@@H](C)[C@@H]4CC(C)=C[C@@]5(O[C@H](C[C@@](C)(O)C(=O)O)CC[C@H]5O)O4)O3)CC[C@H]2O[C@@H]1[C@@H](O)C[C@H](C)[C@H]1O[C@@]2(CCCCO2)CC[C@H]1C [okadaic acid],inhibition of induction of both genes by chitin heptamer,[5],hardly inhibited
same,inhibition of gibberellin's induction of α-amylase,α-amylase,specifically inhibited; also recorded: inhibited by okadaic acid
same,inhibition of induction of both genes by GA3,[6],inhibited almost completely
